# Measured values: patent US5863763A (British Technology Group Ltd., priority 1994, dated 1999)
# Square brackets hold non-standard residues; d marks the D form. Ends that are not written are not given here. Peptide text beside a SMILES is read from it. Hyp = O=C(O)[C@@H]1C[C@@H](O)CN1
# Experiments:
# [1] = type: in vitro ADME, Periplaneta americana; conditions: for peptide remaining after incubation with haemolymph: 24 h
# Method: Degradation of the Met-callatostatins induced by the haemolymph was assessed by measuring the difference between the amount of added peptide at the start of the incubation period and the total immunoassayable material present at its conclusion. Since the radioimmunoassay (RIA) is carboxy-terminal specific, any degradation at the carboxy-terminus, as for example by metalloendopeptidases able to cleave the Phe-Gly bond (Lamango et al in Insect Biochem. Mol. Biol. 23, 801-808 (1993)), would render the molecule non-immunoreactive. On the other hand partial amino-terminus degradation would result in peptides able to bind to the anti-Met-callatostatin antibodies present in the RIA solution. The mixture remaining after incubation would, therefore, contain all intact molecules and any degradation products with a carboxy-terminus of sufficient length to cross-react within the RIA. Experiments were carried out in an insect Ringer's solution containing Hepes buffer (Holman et al in Insect Biochem 21 107-112 (1991)) at 24° C. and pH 7.0 over several time periods from 15 minutes to 24 hours. In some experiments EDTA (10 mM final concentration) was added with the purpose of inhibiting metalloendopeptidases. For both C. vomitoria and P. americana 1 μl of a […] peptide solution was added to 20 μl of Ringer's solution and 15 μl pooled haemolymph. For C. vomitoria 15 μl was taken from the pooled haemolymph of 10 vitellogenic females, and for P. americana the same volume was obtained from 3-4 ootheca-carrying females. At the conclusion of the incubation period 5 μl of an 8% solution of trichloroacetic acid was added to stop the degradation process. The mixture was centrifuged for 1 minute, an 40 μl of the supernatant was added to 20 μl of water, 0.1% trifluoroacetic acid (TFA) prior to chromatography. Chromatography was carried out on a Kromasil™ (Technicol) C18 250×4.6 mm, 5 μm, 300 Å column with a gradient of 0-30% CH3 CN, 0.1% TFA at a flow rate of 1 ml/min with a rate of change of 1.0%/min. Fractions that were immunoreactive in the Met-callatostatin RIA were rechromatographed on a Delta Pak™ (Waters) C18 250×2.1 mm, 5 μm, 300 Å column with a gradient of 10-30% CH3 CN, 0.1% TFA at a flow rate of 0.2 ml/min with a rate of change of 0.5%/min. Peaks of Met-callatostatin-immunoreactive material were measured by RIA, and amino acid sequences were determined.
# [2] = system: Juvenile Hormone III release from corpora allata of virgin P. americana; assay: Radiochemical assay, inhibition of JH III release from isolated corpora allata of P. americana; type: cell-based, Periplaneta americana; conditions: 4- to 6-day-old virgin females, three hour incubations, read-out: IC50, inhibition of JH release from isolated CA
# Method: (§1) Peptides identified from the extracts were synthesized (Affinity Research Products) and tested in radiochemical assays to determine their effects on the synthesis and release of juvenile hormone bisepoxide from the isolated CA of vitellogenic female C. vomitoria. Similar assays were also carried out on the CA of the cockroaches P. americana (4- to 6-day-old virgin females) and B. germanica (6-day-old virgin females). Details of the methods used have been published previously (C. vomitoria in Duve et al in Proc. Nat'l. Acad. Sci. USA 90 2456-2460 (1993), P. americana in Weaver et al in C Comp. Pharmacol. Toxicol. 107, 119-127 (1994), and Weaver, R. C. in J. Insect Physiol. 37, 111-118 (1991), and B. germanica in Piulachs et al in A Comp. Physiol. 102, 477-480 (1992). For C. vomitoria and P. americana the donor methyl group for incorporation into the JH was provided by L-[methyl-^14 C]methionine, 2.04 GBq/mmol (Amersham International plc), added to methionine-free TCC 199 medium to give a final concentration of 260 μM and for B. germanica by L-[methyl-^3 H]methionine, 3.03 TBq/mmol (Amersham) added to TCC 199 medium containing methionine to achieve a concentration of 100 μM and a final specific activity of 7.4 GBq/mmol.
# For comparison, the activity of Met-callatostatin was also assayed. […]
# [3] = system: JH release from CA of B. germanica; assay: Radiochemical assay, inhibition of JH release from isolated corpora allata of B. germanica; type: cell-based, Blattella germanica; conditions: results not shown
# Method: as §1
# [4] = system: juvenile hormone bisepoxide release from the CA of C. vomitoria; assay: Radiochemical assay, release of juvenile hormone bisepoxide from isolated CA of C. vomitoria; type: cell-based, Calliphora vomitoria; conditions: results not shown
# Method: as §1
# [5] = system: Met-callatostatin antisera; assay: Liquid-phase absorption of Met-callatostatin antisera (ICC control); type: binding, rabbit; conditions: at 50 μM
# Source text: A variety of tissues including brain, corpora cardiaca-CA-hypocerebral ganglion complex, thoracicoabdominal ganglion, and the entire gut were fixed in aqueous Bouin's fluid, embedded in paraffin, and sectioned at 6 μm (Duve et al in Cell Tissue Res. 251, 399-415 (1988)). The peroxidase-antiperoxidase method of Sternberger (publ. "Immunocytochemistry" 1974)) was used in combination with the three Met-callatostatin antisera, from rabbits D1, D2 and D3, each of which gave essential, the same results. The results presented here were obtained mainly with antiserum from rabbit D1 bleed 5 used at a concentration of 1:2000 for 24 h at 4° C. Other tissues, including the brain, thoracicoabdominal ganglion, and the gut, complete with its neural connections, were fixed in 4% paraformaldehyde for whole-mount studies using the indirect immunofluorescence technique with either UV or confocal laser scanning microscopy. After fixation, tissues were washed in phosphate-buffered saline and permeabilized in methanol in phosphate-buffered saline. The tissues were washed in phosphate-buffered saline containing 0.2% bovine serum albumin and Triton X-100 (PBT buffer). Incubation of tissues with the Met-callatostatin antisera was at 4° C. over 24 h. […]
# [6] = system: hindgut of C. vomitoria; assay: Inhibition of peristalsis of the hindgut (ileum) of C. vomitoria; set-up: species or system Calliphora vomitoria; conditions: for inhibition of normal peristaltic movements of the ileum: at 1 μm, normal movements 9-10/min
# Method: Adult female C. vomitoria were fed sugar, water and meat for 7 days prior to studying the effect of synthetic peptides (Affinity Research Products Ltd, Nottingham) on gut motility. The stage of development of the oocytes of each fly was recorded to provide a physiological base line. The gut and reproductive system were transferred to a 100-μl Sylgard chamber (Sylgard 184, Dow Corning) and bathed in a Calliphora Ringer's solution (Duve et al in Regul. Pept. 35 145-159 (1991)). Peristaltic movements of the ileum and the other forms of contraction in the rest of the gut and reproductive musculature were observed under a microscope. The preparation was superfused with several washes of Ringer's solution, after which peristaltic movements of the ileum were counted over a 2-minute period. The bathing fluid was replaced with fresh Ringer's solution containing the test peptide and the counting repeated. This procedure could be carried out many times for a single preparation.
# Peptide solutions were made up in Ringer's solution on the day of the experiments, which were carried out at 22° C. Approximately 50 female flies were used.
# Each point represents the mean of 5-16 measurements from a number of different vitellogenic female flies (callatostatin is abbreviated to cast in the figure).
# [7] = pooled haemolymph of 10 vitellogenic females in insect Ringer's solution containing Hepes buffer; conditions: C. vomitoria, 24° C., up to 24 hours
# [8] = pooled haemolymph of C. vomitoria in insect Ringer's solution containing Hepes buffer, pH 7.0; conditions: C. vomitoria (10 vitellogenic females), 24° C., up to 24 hours
# [9] = pooled haemolymph of P. americana in insect Ringer's solution containing Hepes buffer, pH 7.0; conditions: P. americana (3-4 ootheca-carrying females), 24° C., up to 24 hours
Compound,degradation by enzymes in the haemolymph of cockroaches [1],IC50 [2] [µM],IC50 [3] [µM],cleavage product identified after incubation [1],degradation in haemolymph [1],peptide remaining after incubation with haemolymph [1],effect on the release of juvenile hormone bisepoxide from the CA [4],abolition of immunostaining by absorption of antisera [5],inhibition of normal peristaltic movements of the ileum [6],fragment found [7],fragment found [8],fragment found [9],IC50 ([6]; monophasic dose-response curve) [µM]
"CSCC[C@H](NC(=O)CNC(=O)[C@H](Cc1ccccc1)NC(=O)[C@H](CC(=O)O)NC(=O)[C@H](Cc1ccc(O)cc1)NC(=O)[C@@H]1CCCN1C(=O)[C@@H]1C[C@@H](O)CN1C(=O)CN)C(N)=O [[Hyp^2]Met-callatostatin, Gly-Hyp-Pro-Tyr-Asp-Phe-Gly-Met-NH2] (H-G[Hyp]PYDFGM-NH2)",not,–,–,–,–,–,–,–,–,–,–,–,–
"CSCC[C@H](NC(=O)CNC(=O)[C@H](Cc1ccccc1)NC(=O)[C@H](CC(=O)O)NC(=O)[C@H](Cc1ccc(O)cc1)NC(=O)[C@@H]1C[C@@H](O)CN1C(=O)[C@@H]1CCCN1C(=O)CN)C(N)=O [[Hyp^3]Met-callatostatin, Gly-Pro-Hyp-Tyr-Asp-Phe-Gly-Met-NH2] (H-GP[Hyp]YDFGM-NH2)",not,0.0001,1,not,more resistant,less than 10%,neither peptide had any effect,abolished the immunostaining,completely inhibited,–,–,–,–
GPPYDFGM-NH2,–,–,–,–,–,–,–,–,–,oxidised form of the parent compound,"oxidised form of the parent compound, 2-hour","Tyr-Asp-Phe-Gly-Met-NH2 (SEQ ID NO:9), 2-hour",–
"GPPYDFGM-NH2 [Met-callatostatin, Gly-Pro-Pro-Tyr-Asp-Phe-Gly-Met-NH2]",able to degrade,0.0001,1,Tyr-Asp-Phe-Gly-Met-NH2,degraded to approximately the same extent as in C. vomitoria,less than 10%,neither peptide had any effect,abolished the immunostaining,completely inhibited,–,–,–,0.1
GP[Hyp]YDFGM-NH2,–,–,–,–,–,–,–,–,–,oxidised form of the parent compound,"oxidised form of the parent compound, 2-hour",–,–
